Measurements as given in patent US8093393B2, “Cationic ceramides, and analogs thereof, and their use for preventing or treating cancer” (MUSC Foundation for Research Development, priority 2004, dated 2012).

Tests used:
[1] = tested on: L929 mouse fibroblast cells; experiment: TNFα-induced PGE2 release; format: cell-based
Excerpt: Interleukin-1 is a major inducer of inflammation and TNF is an important regulator of the reaction. Both cytokines can activate ceramidase, and thus inhibiting the activity of ceramidase can result in an anti-inflammatory effect. This may involve the prevention of the formation of sphingosine and sphingosine phosphate which have pro-inflammatory effects. Also, inhibition of ceramidase may prevent the hyperproliferation of immune cells that are important for inflammation. […] The release of PGE2 is also shown to be inhibited by D-(N-myristolyamino)-1-phenyl-1-propanol), D-MAPP, which is an inhibitor of one of the ceramidase. This observation may be important for inhibiting inflammatory reactions that occur in conditions, such as but not limited to rheumatoid arthritis. Thus, it is possible to treat or prevent inflammation by regulating the level of cellular ceramide using the method of the invention. As discussed above, ceramide level can be increased by administering compounds of the present invention that can inhibit mitochondrial ceramidase.

[2] = mice; cited from earlier work
[3] = tested on: UM-SCC-22A xenografts; details: 40 mg/kg/each IP every 4 days for 20 days
Protocol: A) Upper Panel: In vivo therapeutic efficacy of L-t-C6-Pyr-Cer in combination with GMZ was determined in SKID mice harboring the UM-SCC-22A xenografts implanted in both flanks. The animals were treated with L-t-C6-Pyr-Cer and GMZ at 40 mg/kg/each every 4 days for 20 days. […] In these experiments, each group contained 6 mice, harboring 12 tumors, in this study. Error bars represent standard deviations, and p values were calculated. […] C) The blood counts, the levels of serum enzymes, and electrolytes were analyzed in response to L-t-C6-Pyr-Cer alone or in combination with GMZ in SKID mice.
After tumors were grown to about 200-400 mm^3 (about two weeks after implantation), the mice were treated without or with chemotherapeutic agents with intraperitoneal (IP) injection (alone or in combination) at half of their maximum tolerated doses (MTD) every 4 days for 20 days. Tumor volumes and the weights of the animals were measured before each treatment, and tumor sizes were measured at the end of the study. The endpoint was tumor rate of growth and/or tumor volume, which was calculated using the formula: length×width^2×0.52. Each experiment included at least 6 mice (which harbored two SCC tumors in flanks) per each treatment, and experiments were done at least in two independent trials.

[4] = tested on: telomerase; experiment: Telomerase activity (TRAP) in treated cells; format: cell-based, human; details: UM-SCC-22A, 48 hr, C6-Pyr-Cer 1 μM, GMZ 100 nM
Protocol: FIGS. 13A to 13B. Roles of CCPS on cell cycle profiles, and telomerase activity of UM-SCC-22A cells. (FIG. 13A) The effects of D-e-C6—, D-e-C12- and L-th-C12-pyridinium ceramides (at 1 μM for 48 hr) on cell cycle profiles of UM-SCC-22A cells were determined and compared to that of untreated cells using flow cytometry as described in Materials and Methods. (FIG. 13B) The effects of 0, 100, 250 and 500 nM L-t-C6-Pyr-Cer (LCL-124) (lanes 1-4, respectively) at 96 hr treatment in UM-SCC-22A cells on telomerase activity was assessed using TRAP assay. Lanes 5 and 6 contain positive (+) and negative (−) controls. To examine whether C6-Pyr-Cer inhibits telomerase activity directly, cell extracts (as shown in lane 1) were incubated in the presence of various concentrations of L-th-C6-Pyr-ceramide (LCL-124; 10, 20 and 100 μM) and telomerase activity was determined using TRAP assay (lanes 7-9, respectively). The presence of non-telomeric 36 bp internal standard (IS) in the TRAP assay serves as a control for polymerase chain reaction, and used for quantitation/normalization of the activity of telomerase. The results shown are representative of at least two independent experiments.
FIGS. 14A to 14D. […] (FIG. 14A) The effects of various chemotherapeutic agents on cell growth in UM-SCC-22A cells were determined using MTT assays, and the IC50 concentrations of each agent were determined from cell growth plots as described. (FIG. 14B) The synergistic effects of DOX and L-th-C6-Pyr-Cer (LCL-124) on cell growth were assessed using isobologram studies as described in Materials and Methods. (FIG. 14C) The effects of 1 μM L-th-C6-Pyr-Cer (LCL-124) or cetyl-pyridinium-bromide, without ceramide conjugate (used as a control) on the growth inhibition potential of GMZ in UM-SCC-22A cells were determined using MTT assays. (FIG. 14D) The effects of GMZ (100 nM), L-th-C6-Pyr-Cer (LCL-124; 1 μM) or GMZ and L-th-C6-Pyr-Cer (LCL-124) (100 nM and 1 μM, respectively) on telomerase activity in UM-SCC-22A cells at 48 hr were examined using TRAP assay, and compared to that of untreated controls (lanes 2, 3, 4 and 1, respectively). The data shown are representative of at least two independent experiments performed in triplicate samples. Standard deviations in each sample were between 0.1-0.5.
Determination of telomerase activity. Telomerase activity in cell extracts was measured by the PCR-based telomere repeat amplification protocol (TRAP) using TRAPeze kit (Intergen, Gaithersburg, Md.) which includes a 36-bp internal control to allow quantification of activity. In short, the intensity of telomere-specific DNA bands, measured using Quantity One (BioRad) software, were normalized to the intensity of internal control bands for each sample on polyacrylamide gels for quantification.

[5] = tested on: telomeres; experiment: Telomere length (TRF) in tumor tissues; format: in vivo, human; details: versus untreated controls
Excerpt: FIG. 29. […] In (B), DNA samples obtained from tumors treated with GMZ (G), L-t-C6-Pyr-Cer (Cer), and the combination of L-t-C6-Pyr-Cer with GMZ (G/C, lanes 2-4, respectively) were compared to that of untreated (U) tumors (lane 1). Lanes 5 and 6 contain DNA samples with low (L) and high (H) molecular weight (3.9 and 10.2 kb, respectively) telomeres. In (D) The levels of hTERT protein in samples obtained from tumors treated with GMZ (G), L-t-C6-Pyr-Cer (Cer), and the combination of L-t-C6-Pyr-Cer with GMZ (G/Cer, lanes 2-4, respectively) were determined by Western blot analysis using rabbit polyclonal anti-hTERT antibody, and compared to that of untreated (U) tumors (lane 1). Lanes 5 and 6 contain samples from telomerase positive (+) and negative (−) extracts. Beta-actin levels of these samples were used as loading controls (lanes 1-6, lower panel). The data shown are representative of two independent trials, and error bars represent standard deviations.
Analysis of telomere length in tumor tissues. The measurement of telomere length was performed in total genomic DNA samples isolated from tumor tissues of the SCID mice using Telomere Restriction Fragment (TRF) Length measurement kit (Roche) by Southern blotting as described in Sundararaj, et al. J Biol Chem 2004; 279:6152-6162.

[6] = tested on: UM-SCC-22A cells; experiment: MTT cell survival assay and isobologram studies; format: cell-based, human; details: Homo sapiens, read-out: IC50 of chemotherapeutic agents
[7] = tested on: MCF7 cells; details: 5 μM, 5 h
Protocol: FIGS. 4A-4C show the cellular levels of CCPS analogs. MCF 7 cells were treated with 5 μM concentration of CCPS analogs over the time and cellular level of the nonmetabolized CCPSs was measured by MS methodology as shown under Experimental. Results are expressed as % of concentration applied.
A parallel set of cells was used to determine cell proliferation and to prepare lipid extracts for MS analysis.
Briefly, for the indicated points, media was removed, cells were washed twice with PBS, scraped into cold PBS (2×1.0 ml), transferred to glass vials and centrifuged for 5 min at 800 rpm. Cell pellets corresponding to ˜1×10^6 cells, were fortified with the internal standards IS (C17 base D-erythro-sphingosine: 17Sph, C17 sphingosine-1-phosphate: 17Sph-1P, N-palmitoyl-D-erythro-C13 sphingosine: 13CC16-Cer and N-heptadecanoyl-D-erythro-C17shingosine: 17CC17-Cer) and extracted (2×2 ml) into a one-phase solvent system with ethyl acetate/iso-propanol/water (60/30/10 v/v). One ml of this extract was used for Pi determination after lipid re-extraction by the Bligh and Dyer method. Remaining lipid extract was evaporated, reconstituted in 100 μl of methanol, and samples were injected on the Surveyor/TSQ 7000 LC/MS system and gradient eluted from the BDS Hypersil C8, 150×3.2 mm, 3 μm particle size column, with 1.0 mM methanolic ammonium formate/2 mM aqueous ammonium formate mobile phase system. Peaks corresponding to the target analytes and IS were collected and processed using the Xcalibur software system.
Cellular level of CCPS analogs was established by MS methodology.

[8] = molecular target: T1, dihydroceramide 4,5-desaturase (Homo sapiens, UniProt O15121); experiment: Conversion of dhCCPS analogs to CCPS analogs in MCF7 cells; format: cell-based; details: MS
T1 construct: dihydroceramide 4,5-desaturase in MCF7 cells to generate the corresponding CCPS analogs; endogenous in cells; host or cells: MCF7
T1 sequence (O15121 1-323): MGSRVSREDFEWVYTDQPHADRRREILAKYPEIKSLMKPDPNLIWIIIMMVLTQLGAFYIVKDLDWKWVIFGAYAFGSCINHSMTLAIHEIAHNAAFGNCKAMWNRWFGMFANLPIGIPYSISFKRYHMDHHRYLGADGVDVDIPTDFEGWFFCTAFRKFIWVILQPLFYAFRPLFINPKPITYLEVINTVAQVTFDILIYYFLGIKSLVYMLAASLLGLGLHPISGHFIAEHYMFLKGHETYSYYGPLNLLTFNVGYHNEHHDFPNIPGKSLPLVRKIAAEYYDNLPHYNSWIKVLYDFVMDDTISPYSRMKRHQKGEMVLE
Excerpt: Absolute levels (pmol) of dhCCPS and CCPS analogs was established by MS approach as shown in the Examples (see Section 6). Data are expressed as changes of particular dhCCPS and CCPS to the total level of dhCCPS+CCPS (100%).

[9] = tested on: MCF7 breast carcinoma cells; experiment: Cell proliferation and viability, Trypan blue exclusion assay; format: cell-based; details: 48 h treatment; read-out: IC50, inhibitory effect on MCF7 cell growth
Protocol: FIGS. 5A-5F show the dose dependent effects of CCPS analogs on survival of MCF7 breast carcinoma cells in comparison to the activity of D-e-C6-ceramide, which is commonly used as a model of ceramide action. Cell proliferation and cell viability were determined by Trypan blue exclusion assay. These assays were performed using duplicate samples in two or three independent experiments.
Cell Proliferation: Cells were seeded into plates at a density of approx. 50% corresponding to 1×10^6 cells, in 10 ml of 10% FCS and after an over night incubation the cells were treated with LCL compounds at concentration 0-20 μM in ethanol (ethanol level was kept below 0.1%) and the changes in cell numbers after 48 h were determined and expressed as a percentage of the untreated controls.
Briefly, media was removed, cells were washed twice with PBS, detached using 1% Trypsin and centrifuged at 800 rpm. Cell pellets were resuspended in PBS and Trypan blue (Sigma Chemicals, St. Louis, Mo., USA) was added (1:1 dilution). Under light microscope, the percentage of unstained and stained cells was assessed.
To examine the anticancer activity of CCPS analogs of the invention, their inhibitory effect on MCF7 breast carcinoma cells were analyzed and compared to the activity of D-e-C6-ceramide, which is commonly used as a model of action for ceramides. Cell proliferation and cell viability were determined by Trypan blue exclusion assay.

[10] = Solubility of ceramides and ceramidoids in water

## CCCCCCCCCCCCCC(=O)NC(C)C(O)c1ccccc1 [D-MAPP]
[1]
  release of PGE2: inhibited

## Nc1ccn([C@@H]2O[C@H](CO)[C@@H](O)C2(F)F)c(=O)n1 [GMZ, gemcitabine, reference compound]
[2]
  MTD of reference drugs (known): 80 mg/kg
[3]
  inhibition of HNSCC tumor growth: some inhibition of HNSCC tumor growth
[4]
  inhibition of telomerase activity: 50%
[5]
  reduction of TRF (telomere) length in tumors: ~200 bp
[6]
  IC50: 100 to 250 nM

## CCCCCCCCCCCCCCC[C@@H](O)[C@H](CO)NC(=O)CCCCCCCCCCC[n+]1ccccc1.[Br-] [LCL249, D-erythro-2-N-[12′-(1″-Pyridinium)-dodecanoyl]-4,5-dihydrosphingosine Bromide]
[7]
  Cellular level, % of concentration applied: 7%
[8]
  metabolism of dhCCPS to the corresponding CCPS analog: time dependent formation of C12-CCPS (LCL88)

## CCCCCCCCCCCCCCC[C@@H](O)[C@H](CO)NC(=O)CCCCCCCCCCCCCCC[n+]1ccccc1.[Br-] [LCL345, D-erythro-2-N-[16′-(1″-Pyridinium)-hexadecanoyl]-4,5-dihydrosphingosine Bromide]
[7]
  Cellular level, % of concentration applied: 4%
[9]
  IC50: 2500 nM
[10]; 22° C.
  Solubility at 22° C.: 0.3 mg/mL
  Solubility at 22° C. ([mM]): (0.42) mM
[10]; 37° C.
  Solubility at 37° C.: 1.4 mg/mL
  Solubility at 37° C. ([mM]): (2.0) mM
[8]
  metabolism of dhCCPS to the corresponding CCPS analog: time dependent formation of C16-CCPS (LCL30)
